Assay results from patent publication US4855430A, “Polycyclicamine with psychotropic activity” (American Home Products Corporation, priority 1987, dated 1989).
Counter-ions that a name gives are not always drawn. Like-named read-outs stand apart in the source and are kept apart here.

Legend:
5-HT1A receptor = settings: literature, in words; cited from earlier work
[1] = molecular target: limbic D-2 dopamine receptor (Rattus norvegicus, UniProt P61169); experiment: inhibition of limbic D-2 dopamine receptor binding (3H-spiroperidol), in vitro; settings: read-out: % Inhibition of H3-Spiroperidol Binding at 1 μM
Protocol: The compounds of the invention are also studied for their ability to inhibit limbic D-2 dopamine receptor binding. This in vitro assay measures the ability of the compounds tested to bind to the dopamine receptor sites.
The test is carried out as follows:
Several rats are decapitated and the brains are rapidly removed. Limbic brain tissue (nucleus accumbens, septal area, olfactory tubercle) is dissected and homogenized on ice in 9 volumes of buffer (50 mM Tris-HCl, 120 mM NaCl, 5 mM KCl, 1 mM CaCl2, 1 mM MgCl2, 0.1% L-ascorbic acid, 10 μM pargyline HCl, pH 7.1) using a Polytron homogenizer at setting 5 for three 15-sec bursts. The homogenate is then diluted 4-fold with buffer and centrifuged at 30,000×g for 20 minutes, and the supernatant is discarded. The pellet is resuspended in the same volume of buffer and recentrifuged as before, again discarding the supernatant. This pellet is then resuspended in the same volume of buffer used in the homogenization, and the protein content of this preparation is assayed by the Lowry method. The homogenate is stored frozen at -70° C. until use.
Thirty μl of the homogenate (0.2-0.3 mg protein/sample) are incubated with 0.3 mM ^3 H-spiroperidol (New England Nuclear) and various concentrations of test drug in a final volume of 1 ml of the above buffer for 10 minutes in a 37° C. water bath. At the end of the incubation, 3 ml of cold 50 mM Tris-HCl, pH 7.7, are added to each tube, and the contents are rapidly vacuum-filtered through Whatman GF/B glass-fiber filters. The filters are then rapidly washed 3 times with 3 ml of the same buffer, placed in scintillation vials, and shaken for 15 minutes with 10 ml of Hydrofluor (National Diagnostics) scintillation cocktail. The vials are then counted in a Packard 460 CD scintillation counter.
Specific binding is defined as total binding less binding in the presence of 1 μM (+)butaclamol. Binding in the presence of various concentrations of test drug is expressed as a percent of specific binding when no drug is present. […] Ki (inhibition constant) for the test drug is then calculated by the formula: [formula]

[2] = West German Patent Application No. 3,321,969A; cited from earlier work
[3] = molecular target: T1, 5-HT1A serotonin receptor (Rattus norvegicus, UniProt P19327); experiment: ex vivo inhibition of 5-HT1A serotonin receptor binding assay (3H-8-OH-DPAT, hippocampal tissue); settings: read-out: % Inhibition of 8-OH DPAT Binding at 1 μM
T1 construct: Hippocampal tissue is dissected and homogenized on ice; from tissue; host or cells: rat hippocampus (membrane homogenate)
T1 sequence (P19327 1-422): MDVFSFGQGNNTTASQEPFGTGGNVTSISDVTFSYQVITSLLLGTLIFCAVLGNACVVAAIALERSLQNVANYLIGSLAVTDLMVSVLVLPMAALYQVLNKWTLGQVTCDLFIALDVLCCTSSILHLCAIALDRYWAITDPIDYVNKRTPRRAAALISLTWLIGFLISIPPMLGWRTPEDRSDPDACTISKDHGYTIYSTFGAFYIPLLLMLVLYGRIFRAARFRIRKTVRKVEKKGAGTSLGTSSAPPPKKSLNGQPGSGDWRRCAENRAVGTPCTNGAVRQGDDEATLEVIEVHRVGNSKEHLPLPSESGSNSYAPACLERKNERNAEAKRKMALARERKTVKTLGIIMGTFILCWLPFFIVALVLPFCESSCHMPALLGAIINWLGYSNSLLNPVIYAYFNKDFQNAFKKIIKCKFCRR
Protocol: The assay is carried out as follows:
Several groups of rats (4-6 rats/group) are injected with test compound or the appropriate vehicle. Thirty minutes later, unless otherwise noted, rats are decapitated and their brains removed. Various brain regions are dissected and rapidly frozen and maintained at -70° C. until used.
The homogenate is then centrifuged at 20,000 rpm (RC5-B; 40,000 g) and the supernatant discarded. The pellet is resuspended in 40 vols of the same buffer and incubated at 37° C. for 10 minutes to aid in the removal of endogenous serotonin. The homogenate is then centrifuged (as above) and the supernatant discarded. The pellet is then resuspended in 100 vols of buffer B (50 mM Tris HCl, pH=7.7 containing 0.1% ascorbate, 10 μM pargyline and 4 mM CaCl2) and sonicated. An aliquot is taken for protein determination by the Lowry method and the remainder stored frozen at -70° C. until used.
The homogenate (50 μl; 0.4-0.6 mg protein/sample) is incubated with 100 μl (1.5-1.8 nM) ^3 H-8-hydroxy-2-(di-n-propylamino)tetraline in a final volume of 2 ml of buffer for 10 minutes at 37° C.
Specific binding obtained in vehicle-treated rats is compared to that obtained in animals receiving a single or various doses of test compound and expressed as percent of control.

[4] = 1 μM, 3H-8-OH-DPAT, rat hippocampal tissue

Sequence of limbic D-2 dopamine receptor (P61169 whole entry): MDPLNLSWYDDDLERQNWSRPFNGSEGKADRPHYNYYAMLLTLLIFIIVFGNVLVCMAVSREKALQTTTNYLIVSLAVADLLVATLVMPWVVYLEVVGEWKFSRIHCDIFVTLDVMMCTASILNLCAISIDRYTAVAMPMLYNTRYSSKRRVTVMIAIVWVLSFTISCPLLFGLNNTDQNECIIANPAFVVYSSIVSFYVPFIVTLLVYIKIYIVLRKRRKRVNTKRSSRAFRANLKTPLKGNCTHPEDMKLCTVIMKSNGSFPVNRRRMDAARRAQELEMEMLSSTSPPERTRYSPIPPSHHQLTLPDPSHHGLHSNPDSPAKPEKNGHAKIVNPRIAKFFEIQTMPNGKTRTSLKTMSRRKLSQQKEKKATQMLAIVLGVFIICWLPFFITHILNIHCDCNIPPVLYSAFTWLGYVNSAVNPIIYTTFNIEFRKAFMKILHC

SMILES: CCCC(C)C1(CC)C(=O)NC(=O)NC1=O (centres unmarked) [pentobarbital]
- binding at the 5-HT1A site (5-HT1A receptor): do not act via the 5-HT1A receptor

SMILES: Clc1cccc(N2CCN(CCCN3CC4C5C=CC(C6CCC56)C4C3)CC2)c1 (centres unmarked) [Example 9, 2-[3-[4-(3-Chlorophenyl)-1-piperazinyl]propyl]-2,3,3a,4,4a,5,6,7,7a-decahydro-4,7-etheno-1H-cyclobut[f]isoindole, trihydrochloride, dihydrate]
- inhibition at 1 µM [1]: 40%

SMILES: O=C1c2ccccc2S(=O)(=O)N1CCCCN1CCN(c2ncccn2)CC1 [TVX Q 7821, 2-[4-[4-(2-pyrimidinyl)-1-piperazinyl]butyl]-1,2-benzisothiazol-3-(2H)one1,1-dioxide hydrochloride]
- binding at the 5-HT1A site (5-HT1A receptor): demonstrate binding at the 5-HT1A site
- antidepressant activity [2]: possess antidepressant activity

SMILES: Clc1cccc(N2CCN(CCCN3CC4CCC(CC4)C3)CC2)c1 [Example 8, 3-[3-[4-(3-Chlorophenyl)-1-piperazinyl]propyl]-3-azabicyclo[3.2.2]nonane, dihydrochloride]
- inhibition at 1 µM [3]: 82%
- inhibition at 1 µM [1]: 11%

SMILES: COc1ccccc1N1CCN(CCCN2CC3CCC(CC3)C2)CC1 [Example 13, 3-[3-[4-(2-Methoxyphenyl)-1-piperazinyl]propyl]-3-azabicyclo[3.2.2]nonane, trihydrochloride, 3/4 hydrate]
- inhibition at 1 µM [1]: 55%

SMILES: C1=CC2C1C1C=CC2C2CN(CCc3ccc4ccccc4n3)CC12 (centres unmarked) [Example 7, 2,3,3a,4,4a,6a,6,7,7a-Octahydro-2-[2-(2-quinolinyl)ethyl]4,7-etheno-1H-cyclobut[f]isoindole, dihydrochloride, 11/4 hydrate]
- inhibition at 1 µM [3, 4]: 46%

SMILES: c1ccc2nc(CCN3CC4CCC(CC4)C3)ccc2c1 [Example 12, 3-[2-(2-Quinolinyl)ethyl[-3-azabicyclo[3.2.2]nonane, dihydrochloride, dihydrate]
- inhibition at 1 µM [3]: 30%

SMILES: C1=CC2C3CCC3C1C1CN(CCc3ccccn3)CC21 (centres unmarked) [Example 6, 2,3,3a,4,4a,5,6,6a,7,7a-Decahydro-2-[2-(2-pyridinyl)ethyl]-4,7-etheno-1H-cyclobut[f]isoindole, dihydrochloride, 1/4 hydrate]
- inhibition at 1 µM [3, 4]: 89%
- inhibition at 1 µM [1]: 3%

SMILES: O=C(CCCN1CC2C3C=CC(C4CC34)C2C1)c1ccc(F)cc1 (centres unmarked) [Example 10, 1-(4-Fluorophenyl)-4-(3,3a,4,4a,5,5a,6,6a-octahydro-4,6-ethenocycloprop[f]isoindole-2-(1H)-yl)-1-butanone, hydrochloride, sesquihydrate]
- inhibition at 1 µM [1]: 93%

SMILES: O=C1CC2(CCCC2)CC(=O)N1CCCCN1CCN(c2ncccn2)CC1 [buspirone, 8-[4-[4-(2-pyrimidinyl)-1-piperazinyl]butyl]-8-azaspiro[4.5]decane-7,9-dione]
- binding at the 5-HT1A site (5-HT1A receptor): demonstrate binding at the 5-HT1A site

SMILES: C1=CC2C3CCC3C1C1CN(CCc3ccc4ccccc4n3)CC21 (centres unmarked) [Example 4, 2,3,3a,4,4a,5,6,6a,7,7a-Decahydro-2-[2-(2-quinolinyl)ethyl]-4,7-etheno-2H-cyclobut[f]isoindole, dihydrochloride, hydrate]
- inhibition at 1 µM [3, 4]: 97%
- inhibition at 1 µM [1]: 17%

SMILES: O=C(CCCN1CC2C3C=CC(CCC3)C2C1)c1ccc(F)cc1 (centres unmarked) [Example 3, 1-(4-Fluorophenyl)-4-(3,3a,4,5,6,7,8,8a-octahydro-4,8-ethenocyclohepta[c]pyrrol-2(1H)-yl)-1-butanone, hydrochloride, hydrate]
- inhibition at 1 µM [3]: 61%
- inhibition at 1 µM [1]: 100%
